Patent US7973147B2, “K04-0144 substance and a process for production thereof” (The Kitasato Institute, priority 2006, dated 2011)
Values after ≈ are worked out from the molar mass of the structure shown. “Also recorded” adds a separate entry of the source. Read-outs that look alike come from different tables or passages of the source.

Key:
[1] = test system: MRSA (Clinical isolate, the Kitasato Hospital, Japan); test: Enhancing action of K04-0144D substance on antibiotic activities, broth microdilution method; assay type: cell-based, methicillin-resistant Staphylococcus aureus; conditions: for MIC: Staphylococcus aureus, MRSA
MRSA N315 IR94 = test: MIC, agar plate dilution method; assay type: cell-based, methicillin-resistant Staphylococcus aureus; conditions: Staphylococcus aureus, 20 h
Protocol: (§1) Assay of minimum inhibitory concentration (MIC) was performed according to the agar plate dilution method (Method of Japan Society of Chemotherapy, CHEMOTHERAPY 29, 76-79, 1981).
(§2) Test organisms used were 27 types of microorganisms including clinical isolates of methicillin-resistant Staphylococcus aureus. Each test organism was cultured in Mueller-Hinton broth (2.1% w/v) (DIFCO) at 37° C. for 20 hours, and the cultured cells were suspended to about 10^6 cell counts/ml in the same medium, then was used as the microbial suspension for inoculation. The prepared microbial suspension was smeared by using the microplanter on MHA medium (Mueller-Hinton broth 2.1% (w/v) and agar 1.5%) containing K04-0144A substance, K04-0144B substance or K04-0144C substance, each of which was subjected to two-fold stepwise dilution from 128 μg/ml. After culturing at 37° C. for 20 hours, MIC was determined by macroscopically confirming the growth of microorganisms. Vancomycin, arbekacin and linezolid were used as a comparative control.

MRSA 70 = test: MIC, agar plate dilution method; assay type: cell-based, methicillin-resistant Staphylococcus aureus; conditions: Staphylococcus aureus
Protocol: as §1, §2

MRSA N315 IR94 HR-1 = test: MIC, agar plate dilution method; assay type: cell-based, methicillin-resistant Staphylococcus aureus; conditions: Staphylococcus aureus, 20 h
Protocol: as §1, §2

MRSA 92-1191 = test: MIC, agar plate dilution method; assay type: cell-based, methicillin-resistant Staphylococcus aureus; conditions: Staphylococcus aureus; MRSA 92-1191; 37° C., 20 hours; read-out: MIC
Protocol: as §1, §2

P. aeruginosa 46001 = test: MIC, agar plate dilution method; assay type: cell-based; conditions: Pseudomonas aeruginosa; P. aeruginosa 46001; 37° C., 20 hours; read-out: MIC
Protocol: as §1, §2

S. aureus FDA209P = test: MIC, agar plate dilution method; assay type: cell-based; conditions: Staphylococcus aureus; S. aureus FDA209P; 37° C., 20 hours; read-out: MIC
Protocol: as §1, §2

[2] = test system: E. faecium NTCT12203(VanA); test: MIC, agar plate dilution method; assay type: cell-based; conditions: Enterococcus faecium; E. faecium NTCT12203(VanA); 37° C., 20 hours; read-out: MIC
Protocol: as §1, §2

P. mirabilis IFO3849 = test: MIC, agar plate dilution method; assay type: cell-based; conditions: Proteus mirabilis; P. mirabilis IFO3849; 37° C., 20 hours; read-out: MIC
Protocol: as §1, §2

S. aureus 8325(pMS97) = test: MIC, agar plate dilution method; assay type: cell-based; conditions: Staphylococcus aureus, 20 h
Protocol: as §1, §2

E. cloacae IFO13535 = test: MIC, agar plate dilution method; assay type: cell-based; conditions: Enterobacter cloacae; E. cloacae IFO13535; 37° C., 20 hours; read-out: MIC
Protocol: as §1, §2

M. morganii IID Kono = test: MIC, agar plate dilution method; assay type: cell-based; conditions: Morganella morganii; M. morganii IID Kono; 37° C., 20 hours; read-out: MIC
Protocol: as §1, §2

S. marcescens IFO12648 = test: MIC, agar plate dilution method; assay type: cell-based; conditions: Serratia marcescens; S. marcescens IFO12648; 37° C., 20 hours; read-out: MIC
Protocol: as §1, §2

E. coli NIHJ JC-2 = test: MIC, agar plate dilution method; assay type: cell-based; conditions: Escherichia coli, NIHJJC2; E. coli NIHJ JC-2; 37° C., 20 hours; read-out: MIC
Protocol: as §1, §2

C. freundii ATCC8090 = test: MIC, agar plate dilution method; assay type: cell-based; conditions: Citrobacter freundii; C. freundii ATCC8090; 37° C., 20 hours; read-out: MIC
Protocol: as §1, §2

[3] = test system: E. facecalis NTCT12201(VanA); test: MIC, agar plate dilution method; assay type: cell-based; conditions: E. facecalis NTCT12201(VanA); 37° C., 20 hours; read-out: MIC
Protocol: as §1, §2

S. epidermidis IFO12648 = test: MIC, agar plate dilution method; assay type: cell-based; conditions: Staphylococcus epidermidis; S. epidermidis IFO12648; 37° C., 20 hours; read-out: MIC
Protocol: as §1, §2

E. aerogenes NCTC10006 = test: MIC, agar plate dilution method; assay type: cell-based; conditions: Klebsiella aerogenes; E. aerogenes NCTC10006; 37° C., 20 hours; read-out: MIC
Protocol: as §1, §2

P. aeruginosa E-2 = test: MIC, agar plate dilution method; assay type: cell-based; conditions: Pseudomonas aeruginosa, E2; P. aeruginosa E-2; 37° C., 20 hours; read-out: MIC
Protocol: as §1, §2

S. aureus ISP217 = test: MIC, agar plate dilution method; assay type: cell-based; conditions: Staphylococcus aureus; S. aureus ISP217; 37° C., 20 hours; read-out: MIC
Protocol: as §1, §2

S. aureus ISP447 = test: MIC, agar plate dilution method; assay type: cell-based; conditions: Staphylococcus aureus; S. aureus ISP447; 37° C., 20 hours; read-out: MIC
Protocol: as §1, §2

K. pneumoniae NCTN9632 = test: MIC, agar plate dilution method; assay type: cell-based; conditions: Klebsiella pneumoniae; K. pneumoniae NCTN9632; 37° C., 20 hours; read-out: MIC
Protocol: as §1, §2

M. luteus ATCC9341 = test: MIC, agar plate dilution method; assay type: cell-based; conditions: Micrococcus luteus; M. luteus ATCC9341; 37° C., 20 hours; read-out: MIC
Protocol: as §1, §2

A. calcoaceticus IFO2552 = test: MIC, agar plate dilution method; assay type: cell-based; conditions: Acinetobacter calcoaceticus; A. calcoaceticus IFO2552; 37° C., 20 hours; read-out: MIC
Protocol: as §1, §2

S. aureus 8325(pEP2104) = test: MIC, agar plate dilution method; assay type: cell-based; conditions: Staphylococcus aureus, 20 h
Protocol: as §1, §2

P. vulgaris OX-19 = test: MIC, agar plate dilution method; assay type: cell-based; conditions: Proteus vulgaris, OX19; P. vulgaris OX-19; 37° C., 20 hours; read-out: MIC
Protocol: as §1, §2

S. aureus Smith = test: MIC, agar plate dilution method; assay type: cell-based; conditions: Staphylococcus aureus; S. aureus Smith; 37° C., 20 hours; read-out: MIC
Protocol: as §1, §2

E. faecalis ATCC21212 = test: MIC, agar plate dilution method; assay type: cell-based; conditions: Enterococcus faecalis; E. faecalis ATCC21212; 37° C., 20 hours; read-out: MIC
Protocol: as §1, §2

Solubility in solvent = assay type: physicochemical

Row | Compound | MIC (MRSA N315 IR94) | MIC (MRSA N315 IR94 HR-1) | MIC (MRSA 92-1191) | MIC (P. aeruginosa 46001) | MIC (S. aureus FDA209P) | MIC [2] | MIC (P. mirabilis IFO3849) | MIC (S. aureus 8325(pMS97)) | MIC (E. cloacae IFO13535) | MIC (M. morganii IID Kono) | MIC (S. marcescens IFO12648) | MIC (E. coli NIHJ JC-2) | MIC (C. freundii ATCC8090) | MIC [3] | MIC (S. epidermidis IFO12648) | MIC (E. aerogenes NCTC10006) | MIC (P. aeruginosa E-2) | MIC (S. aureus ISP217) | MIC (S. aureus ISP447) | MIC (K. pneumoniae NCTN9632) | further results
1 | C[C@@H](O)[C@H]1C(=O)N2C(C(=O)O)=C(SCCN=CN)C[C@H]12 [Imipenem, imipenem] | – | – | – | – | – | – | – | – | – | – | – | – | – | – | – | – | – | – | – | – | Ratio (−/+K04-0144D) ([1]; MIC alone / MIC with K04-0144D substance 16 μg/ml): 1024; MIC ([1]; antibiotic alone, without K04-0144D substance, read-out: Minimum Inhibitory Concentration (−)): 32 µg/mL; MIC ([1]; combined use with K04-0144D substance 16 μg/ml, read-out: Minimum Inhibitory Concentration (+)): 0.03 µg/mL
2 | C=C(C/C=C(\C)CCC=C(C)C)CCC(C)(C)/C=C/CC/C(C)=C\COC(COP(=O)(O)OC1OC(C(N)=O)C(C)(O)C(OC(N)=O)C1OC1OC(CO)C(OC2OC(C)C(OC3OC(C(=O)O)C(O)C(O)C3O)C(O)C2NC(C)=O)C(O)C1NC(C)=O)C(=O)O (centres unmarked) [K04-0144B] | 0.125 µg/mL (≈ 0.0943 µM) | 0.125 µg/mL (≈ 0.0943 µM) | 1 µg/mL (≈ 0.755 µM) | > 16 µg/mL | 2 µg/mL (≈ 1.51 µM) | > 16 µg/mL | 16 µg/mL (≈ 12.1 µM) | 1 µg/mL (≈ 0.755 µM) | > 16 µg/mL | > 16 µg/mL | > 16 µg/mL | > 16 µg/mL | > 16 µg/mL | 2 µg/mL (≈ 1.51 µM) | 8 µg/mL (≈ 6.04 µM) | > 16 µg/mL | > 16 µg/mL | 0.5 µg/mL (≈ 0.377 µM) | 0.5 µg/mL (≈ 0.377 µM) | > 16 µg/mL | MIC (MRSA 70; MRSA, 20 h): 0.125 µg/mL (≈ 0.0943 µM); MIC (M. luteus ATCC9341): > 16 µg/mL; MIC (A. calcoaceticus IFO2552): 8 µg/mL (≈ 6.04 µM); MIC (S. aureus 8325(pEP2104)): 0.06 µg/mL (≈ 0.0453 µM); MIC (P. vulgaris OX-19): 4 µg/mL (≈ 3.02 µM); MIC (S. aureus Smith): 2 µg/mL (≈ 1.51 µM); MIC (E. faecalis ATCC21212): 2 µg/mL (≈ 1.51 µM); Solubility in solvent (Solubility in solvent; listed as K04-0144B Substance): Soluble in water, methanol and dimethyl sulfoxide; also recorded: Insoluble in acetone, chloroform and n-hexane
3 | C=C(C/C=C(\C)CCC=C(C)C)CCC(C)(C)/C=C/CC/C(C)=C\COC(COP(=O)(O)OC1OC(C(N)=O)C(C)(O)C(OC(N)=O)C1OC1OC(CO)C(OC2OC(C)C(OC3OC(C(N)=O)C(O)C(O)C3O)C(O)C2NC(C)=O)C(O)C1NC(C)=O)C(=O)O (centres unmarked) [K04-0144C] | ≤ 0.25 µg/mL | ≤ 0.25 µg/mL | 0.5 µg/mL (≈ 0.378 µM) | 32 µg/mL (≈ 24.2 µM) | 1 µg/mL (≈ 0.755 µM) | 64 µg/mL (≈ 48.3 µM) | 8 µg/mL (≈ 6.04 µM) | 0.5 µg/mL (≈ 0.378 µM) | 32 µg/mL (≈ 24.2 µM) | 32 µg/mL (≈ 24.2 µM) | 32 µg/mL (≈ 24.2 µM) | 8 µg/mL (≈ 6.04 µM) | 64 µg/mL (≈ 48.3 µM) | 0.5 µg/mL (≈ 0.378 µM) | 1 µg/mL (≈ 0.755 µM) | 32 µg/mL (≈ 24.2 µM) | 32 µg/mL (≈ 24.2 µM) | ≤ 0.25 µg/mL | ≤ 0.25 µg/mL | 8 µg/mL (≈ 6.04 µM) | MIC (MRSA 70; MRSA 70, 37° C., 20 hours, read-out: MIC): ≤ 0.25 µg/mL; MIC (M. luteus ATCC9341): > 128 µg/mL; MIC (A. calcoaceticus IFO2552): 8 µg/mL (≈ 6.04 µM); MIC (S. aureus 8325(pEP2104)): 0.5 µg/mL (≈ 0.378 µM); MIC (P. vulgaris OX-19): 4 µg/mL (≈ 3.02 µM); MIC (S. aureus Smith): 1 µg/mL (≈ 0.755 µM); MIC (E. faecalis ATCC21212): 0.5 µg/mL (≈ 0.378 µM); Solubility in solvent (Solubility in solvent; listed as K04-0144C substance): Soluble in water, methanol and dimethyl sulfoxide; also recorded: Insoluble in acetone, chloroform and n-hexane
